# Assay results from US20220213060A1, “Crystal Form of Quinazolinone Compound and Preparation Method Therefor” (Luoxin Healthcare Science and Technology Development …, priority 2019, published 2022).
# What was measured:
# [1] = test system: human ovarian cancer SKOV-3 (PIK3CA H1047R mutation); assay: In vivo pharmacodynamic study, SKOV-3 nude mouse subcutaneous xenograft tumor model; set-up: species or system BALB/c nude mice; conditions: for T/C % / TGI %: oral once a day for 28 days
# Procedure: Human SKOV-3 ovarian cancer cells with PIK3CA H1047R mutation. This experiment evaluated the efficacy of the crystal form A of the represented by formula (I) in a human ovarian cancer xenograft tumor model.
# (§1) Cell culture: Human ovarian cancer SKOV-3 cells were cultured in vitro in a single layer, the culture condition was RPMI-1640 medium with 10% fetal bovine serum, and the cells were incubated in 5% CO2 at 37° C. Digestion and passage treatment with trypsin-EDTA was carried out twice a week. When the cell saturation was 80%-90% and the number reached the requirement, the cells were collected, counted and inoculated.
# Animals: BALB/c nude mice, female, 6-8 weeks old, weighing 18-20 g. A total of 67 animals were required, and provided by Beijing Vital River Biotechnology Co., Ltd.
# (§2) Tumor inoculation: 0.2 mL (10×10^6 cells) of SKOV-3 cells (with matrigel in a volume ratio of 1:1) were subcutaneously inoculated on the right back of each mouse, group administration was started when the average tumor volume reached 150 mm^3-200 mm^3.
# (§3) Tumor-bearing mice in each administration group had good tolerance to the tested compounds.
# [2] = test system: human breast cancer T47D (PIK3CA H1047R mutation); assay: In vivo pharmacodynamic study, T47D nude mouse subcutaneous xenograft tumor model; set-up: species or system BALB/c nude mice
# Procedure: The phenotype of human T47D breast cancer cells is HR+/HER2−, and it carries PIK3CA H1047R mutation. This experiment evaluated the efficacy of the crystal form A of the compound represented by formula (I) in a human breast cancer xenograft tumor model.
# as §1, with “culture: Human breast cancer T47D” for “culture: Human ovarian cancer SKOV-3”, “breast cancer T47D cells were” for “ovarian cancer SKOV-3 cells were”, “medium with 0.2 U/mL bovine insulin and 10% fetal” for “medium with 10% fetal”
# Animals: BALB/c nude mice, female, 6-8 weeks old, weighing 18-20 g. A total of 75 animals were required, and provided by Shanghai Bikai experimental animal Co., Ltd or other qualified suppliers.
# as §2, with “inoculation: Estrogen tablets (0.18 mg/tablet) were subcutaneously inoculated on the left back of each mouse. Three days later,” for “inoculation:”, “T47D” for “SKOV-3”
# as §3
# Jeko-1 = assay: Akt phosphorylation inhibition in Jeko-1 cells (high expression of PI3Kδ); format: cell-based; conditions: Jeko-1 cell line with high expression of PI3Kδ
# p-AKT = assay: Western blot analysis of p-AKT protein expression level in BT474 tumor tissue samples; format: in vivo; conditions: BT-474 nude mouse transplanted tumor model, 0.5 h, 4 h, 24 h after administration
# Procedure: 7.1 Protein extraction and quantification
# 1) Quick-frozen tissue samples were taken out from the refrigerator at −80° C.
# 2) Operating on dry ice, cutting part of the tissues (about 30 mg), putting them into a 2 mL centrifuge tube with steel balls, and adding 500 μL of cell lysate RIPA (1% protease inhibitor and phosphatase inhibitor had been newly added).
# 3) Tissue was broken for 5 minutes using the highest frequency of Tissuelyser LT.
# 4) The tissue lysate was placed on ice for 30 minutes.
# 5) Centrifuging at 12,000 rpm at 4° C. for 10 minutes and removing the supernatant into a new 1.5 mL centrifuge tube.
# 6) The protein was quantified by BCA quantitative kit.
# 7) According to the quantitative results, the protein sample for loading was prepared, the protein concentration of the sample was unified to 2 μg/μL, LDS loading buffer (4×) and sample reducing agent (10×) were added, and the sample was heated at a constant temperature of 100° C. for 10 minutes.
# 8) Western blotting, or storing the denatured samples in a refrigerator at −80° C.
# 1) The sample for loading was thawed. […]
# 5) After the membrane transfer was finished, the membrane was cut according to the molecular weight of the protein to be detected, the membrane was washed with 1×TBST for 3 times and 5 minutes each time, and was shaken at room temperature. […]
# 13) Chemiluminescence was detected and photographed on the Tanon 5200 multi machine.
# [3] = 10 mg/kg, listed as crystal form A of the compound represented by formula (I)
# [4] = 20 mg/kg, listed as crystal form A of the compound represented by formula (I)
# [5] = 40 mg/kg, listed as crystal form A of the compound represented by formula (I)
# [6] = 10 mg/kg, oral once a day for 42 days
# [7] = 10 mg/kg, oral once a day for 42 days, listed as crystal form A of the compound represented by formula (I)
# [8] = 20 mg/kg, oral once a day for 42 days
# [9] = 20 mg/kg, oral once a day for 42 days, listed as crystal form A of the compound represented by formula (I)
# [10] = 40 mg/kg, oral once a day for 42 days
# [11] = 40 mg/kg, oral once a day for 42 days, listed as crystal form A of the compound represented by formula (I)
smiles,measurement,setting,value
CNC(=O)[C@H](C)Cn1cnc2ccc(-c3cnc(OC)c(NS(=O)(=O)c4ccc(F)cc4F)c3)cc2c1=O,Anti-tumor effect (in words),[1]; 10 mg/kg,a certain anti-tumor effect
same,T/C %,[1]; 10 mg/kg,69.17%
same,TGI %,[1]; 10 mg/kg,30.45%
same,T/C %,[1]; [3],69.17%
same,TGI %,[1]; [3],30.45%
same,Anti-tumor effect (in words),[1]; 20 mg/kg,a certain anti-tumor effect
same,T/C %,[1]; 20 mg/kg,60.61%
same,TGI %,[1]; 20 mg/kg,41.42%
same,T/C %,[1]; [4],60.61%
same,TGI %,[1]; [4],41.42%
same,Anti-tumor effect (in words),[1]; 40 mg/kg group,significant anti-tumor effects
same,T/C %,[1]; 40 mg/kg,37.79%
same,TGI %,[1]; 40 mg/kg,69.16%
same,T/C %,[1]; [5],37.79%
same,TGI %,[1]; [5],69.16%
same,Anti-tumor effect (in words),[2]; 10 mg/kg group,strong anti-tumor effect
same,T/C %,[2]; [6],50.40%
same,TGI %,[2]; [6],67.58%
same,T/C %,[2]; [7],50.40%
same,TGI %,[2]; [7],67.58%
same,Anti-tumor effect (in words),[2]; 20 mg/kg group,strong anti-tumor effect
same,T/C %,[2]; [8],44.70%
same,TGI %,[2]; [8],72.56%
same,T/C %,[2]; [9],44.70%
same,TGI %,[2]; [9],72.56%
same,Anti-tumor effect (in words),[2]; 40 mg/kg group,significant anti-tumor effects
same,T/C %,[2]; [10],37.91%
same,TGI %,[2]; [10],84.71%
same,T/C %,[2]; [11],37.91%
same,TGI %,[2]; [11],84.71%
same,Dose to play the effect,[2]; oral once a day for 42 days,10 mg/kg
same,"Selectivity PI3Kα over PI3Kδ, Akt phosphorylation inhibitory activity in cells",Jeko-1,23.0 times
same,"Akt phosphorylation level downstream of PI3K in tumor tissue (Western blot, FIG. 10)",p-AKT,significantly inhibit
